Results from patent publication US20240041827A1, “COMPOSITIONS FOR THE TREATMENT OF FAT RELATED CONDITIONS AND DISORDERS” (priority 2020, published 2024).

Assay: in vitro
Protocol: Human visceral preadipocytes were seeded in 96-well white clear bottom plates at 10,000 cells per well in 100 μl pre-adipocyte medium and incubated overnight at 37° C. 5% CO2. On the following day, adipogenic differentiation was induced by addition of 100 μl/well differentiation medium and incubation continued for 5 days. Adipogenic differentiation was verified by microscopic evaluation, addition of adipored reagents and fluorescent measurement at Ex485 nm/Em572 nm. […] Staurosporine (1 μM) and 0.2% DMSO were used as controls. Plates were incubated at 37° C. 5% CO2 for 2, 6 and 24 hours. Following incubation, cytotoxicity was measured using Cell Titer Glo 2.0 (Promega).
Test Item RZL-12 (1-300 μM) was prepared on the day of the testing as 150 mM stock solutions in DMSO. The 150 mM represents a 500×stock of the highest desired tested concentration. The 150 mM stock solution was first serially diluted in DMSO to acquire 500×stock solutions for each of the RZL-012 concentrations. The 500×stock solutions were then diluted 1:25 in medium to acquire 20×intermediate stock solutions. Finally, the 20×intermediate stock solutions were further diluted 1:20 in the assay (on the plate) that included seeded cells.
The 600 μM represents a 20× stock of the highest desired tested concentration. […] Finally, the 20×intermediate stock solutions were further diluted 1:20 in the assay plate that included seeded cells.
Human visceral pre-adipocytes (HPrAD-vis): HPrAD-vis cells (Lonza cat #PT-5005) were thawed at 37° C. and transferred into 50 ml tubes containing pre-adipocytes PGM-2 growth medium (PBM-2, 10% FBS, 1-glutamine, GA-1000). Cells were centrifuged at 300 g for 10 minutes, the supernatant was removed (Leaving about 1 ml of wash medium for not disrupting the cells) and 2 ml fresh PGM-2 medium was added. After resuspension, cells were counted and seeded in T-75 and T25 flasks at a density of 9,000 cells/cm^2 ([…], 225,000 cells/T25 flask). Medium was changed every 2-3 days until reached confluence of 70%.
Cells were sub-cultured only once, as soon as they reached 70% confluence. For this purpose, the culture medium of each flask was removed and cells were washed once with 5 ml PBS. The flask was shaken to ensure that the entire surface was covered and the PBS was removed. Then, 3 ml/T75 flask or 1 ml/T25 flask of fresh dedicated Trypsin/EDTA solution (from Lonza) was added and the flasks were incubated for 3-4 minutes at RT until ˜90% cells were detached. The Trypsin/EDTA solution was then neutralized by addition of 6 ml/T75 flask or 3 ml/T25 flask of full PGM-2 growth medium. Cells were collected in 50 ml tubes and centrifuged 10 minutes at 300 g. The supernatant was removed and the cells were resuspended in 3 ml fresh medium. Cells were then counted using a haemacytometer slide after being diluted 1:2 in trypan blue (SIGMA). For sub-culturing, cells were seeded in new T75 flasks at a density of 9,000 cells/cm^2 containing 15 ml fresh growth medium. Alternatively, the cells were seeded in 96-well culture plates at a density of 10,000 cells/well for the cell treatments.
HPrAD-vis cells: HPrAD-vis passaged once were seeded in 96-well plates as described above (10000cells/well in 100 μl medium) and allowed to settle overnight at 37° C., 5% CO2. Following day, adipogenic differentiation was induced by addition of 100 μl/well differentiation medium and incubated for 5 days. Adipogenic differentiation was verified by microscopic evaluation, addition of adipored reagents and fluorescent measurement at Ex485 nm/Em572 nm. In the morning of day 6, test and reference items were prepared as described above. Cells' medium was replaced with 90 μl fresh differentiation medium. […] Staurosporine (1 μM) and 0.2% DMSO were used as controls. Plates were incubated at 37° C. 5% CO2 for 2, 6 and 24 hours. Following incubation, cell viability was determined using the CellTiter-Gg® viability reagent (Promega) with reading of plates for luminescence. […]

Molecule C[N+](C)(C)CCCCCn1c2ccc(Br)cc2c2cc(Br)ccc21.[Cl-] [RZL-012, 5-(3,6-dibromo-9H-carbazol-9-yl)-N,N,N-trimethylpentan-1-aminium chloride] has an IC50 of about 30 µM.
